The test system of one experiment is SF-1. As to conditions: CV-1 cells; cited from earlier work.
The target of a further experiment is T1, human SF-1 (Homo sapiens, UniProt Q13285).
T1 construct: For E. coli expression the SF-1 G219-T461 insert was cloned into a modified pET vector; made in house
The experiment can be described thus: AlphaScreen coactivator (SRC-1/NCoA1) recruitment to His-tagged SF-1 LBD. It counts as biochemical. As to conditions: for dose-dependent NCoA1/SRC1 recruitment to SF-1: FIG. 7B, liposome-washed SF-1. The source says:
However, the lipids binding SF-1 could be partially extracted by washing the proteins with liposomes prepared using phosphatidylcholine (C22 acyl chain length). It was reasoned that such liposomes with long acyl chains could act as a sink for extracted lipids, without binding the receptors themselves. After such washing the coactivator binding by SF-1 was diminished, but could be activated by the addition of phosphatidylethanolamine (FIG. 5A). The PE 16:0 16:1 observed in the crystal structure is unavailable commercially, so it could not be readily obtained. […] (Parks et al., Science, 1999, 284:1365-8; Makishima et al., Science, 1999, 284:1362-5.)
A variety of different methods for detecting molecular interactions can be used. For example, Alpha Screen technology (Perkin Elmer) is suitable to detect the interaction of the receptor with the coactivator fragment. In this case it is suitable to engineer the ligand-binding domain of the SF-1 and LRH-1 as an N-terminally HIS-tagged protein that can bind the acceptor bead (containing Nickel moieties that will bind the HIS tag). The coactivator fragment can be synthesized containing a biotin moiety that will bind the donor bead. In the presence of ‘activating’ compounds the association of the receptor with the co-regulator may be strengthened, whereas the presence of ‘inhibitory’ compounds may destabilize this interaction. Libraries of chemicals, or derivatives, can be quantified for their effects on co-regulator binding.
Thus, in an exemplary implementation, the Alpha Screen Histidine detection (Nickel chelate) kit (Perkin Elmer) is used to detect binding between His-tagged receptor LBD and biotinylated coactivator peptides or fragments. The assay is performed in Costar 384-well white polystyrene plates (Coming Inc.), in a total volume of 20 μL. Compounds to be tested for their abilities to modulate the interaction of nuclear receptor with coactivator are added to the 384-well plate in 1 μL of DMSO or buffer in advance of addition of the receptor and coactivator proteins.
Reactions are initiated in 15 μl containing 50 nM His-tagged nuclear receptor and […] biotin-tagged coactivator fragment, using buffer containing 50 mM Bis-tris HCl (pH 7.0), 50 mM KCl, 0.05% Tween 20, 1 mM DTT, 0.1% BSA. Other buffer variations can be tested to optimize the largest difference in signals obtained using the apo receptor and receptor bound to compounds already determined to bind and activate the receptor. After the protein solutions are added to the compounds, the plate is sealed and incubated at room temp for 2 hours. After incubation, a 5 μL mixture containing streptavidin donor beads (15 μg/ml) and Ni-chelate acceptor beads (15 μg/ml) are added from the Nickel chelate kit. Plates are resealed and incubated in the dark for 2 hours at room temperature and then read in an AlphaFusion reader set at a read time of 1 s/well.
A signal is produced by the binding of coactivator to nuclear receptor that can be detected by the AlphaFusion reader (the binding brings the acceptor beads into close proximity of the donor beads, which allows the acceptor beads to detect the singlet oxygens produced by the donor beads, causing them to emit a light detected by the instrument). Data analysis can be performed using GraphPad Prism (GraphPad Software, Inc.). […]
A general note: In Alpha technology, singlet oxygen from a donor bead excites a nearby acceptor bead.

The target in experiment [1] is coactivator fragment (GST-coactivator fusion protein; the filing does not say which). As to the kind of experiment: co-expression in E. coli, metal affinity purification of His-tagged LRH-1.

T1 sequence (Q13285 219-461): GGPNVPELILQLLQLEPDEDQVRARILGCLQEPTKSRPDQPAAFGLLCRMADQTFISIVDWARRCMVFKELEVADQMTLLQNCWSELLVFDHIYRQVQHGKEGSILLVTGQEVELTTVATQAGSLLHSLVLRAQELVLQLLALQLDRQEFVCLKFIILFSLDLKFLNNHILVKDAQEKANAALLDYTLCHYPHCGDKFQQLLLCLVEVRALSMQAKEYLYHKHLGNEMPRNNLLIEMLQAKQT
T1 sequence (Q15788 595-780 partner limits assumed): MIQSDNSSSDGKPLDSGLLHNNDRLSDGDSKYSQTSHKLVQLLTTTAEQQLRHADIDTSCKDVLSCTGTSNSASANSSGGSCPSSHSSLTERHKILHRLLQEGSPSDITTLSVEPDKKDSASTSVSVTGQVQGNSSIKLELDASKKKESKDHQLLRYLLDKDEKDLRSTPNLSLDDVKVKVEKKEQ

For `C[C@@H](CO)CCC[C@@H](C)[C@H]1CC[C@H]2[C@@H]3CC=C4C[C@@H](O)CC[C@]4(C)[C@H]3CC[C@]12C` [27-hydroxycholesterol], the SF-1-dependent transcriptional activity result with SF-1 is “modest increase”.

As for `CC/C=C\C/C=C\C/C=C\CCCCCCCC(=O)OC[C@H](COP(=O)(O)OCCN)OC(=O)CCCCCCC/C=C\C/C=C\C/C=C\CC` [PE-18:3, 1,2-dilinolenoyl-sn-glycero-3-phosphoethanolamine], the “activation of wild-type SF-1 to bind NCoA1 as measured by AlphaScreen” value on human SF-1 (50 μM compound, FIG. 7A) is “activates”. Also, the “dose-dependent NCoA1/SRC1 recruitment to SF-1” value at human SF-1 was “Dose-dependent”; on human SF-1 (listed as PE 18:3 18:3) it was “dose-dependent increase”. At human SF-1 (SF-1 protein washed with phosphatidylcholine liposomes, biotinylated GST-SRC-1 fragment), the EC50 – broadly, the concentration at which the effect is half-maximal – amounted to 30 µM. In the case of `C[C@@H](CO)CCC[C@@H](C)[C@H]1CC[C@H]2[C@@H]3CC=C4C[C@@H](O)CC[C@]4(C)[C@H]3CC[C@]12C` [26-hydroxycholesterol], the SF-1-dependent transcriptional activity result with SF-1 was “modest increase”. For the compound `C[C@H](CCCC(C)(C)O)[C@H]1CC[C@H]2[C@@H]3CC=C4C[C@@H](O)CC[C@]4(C)[C@H]3CC[C@]12C` [25-hydroxycholesterol], in the experiment with SF-1, the SF-1-dependent transcriptional activity entry is recorded as “modest increase”. Turning to “His-tagged human LRH-1 LBD (S251-A495) E488K (from UniProt O00482-2) (receptor)”, the decrease in coactivator fragment binding compared to the LRH-1-WT protein in experiment [1] turned out to be 70%.

Regarding phosphatidylethanolamine, at human SF-1 (SF-1 washed with phosphatidylcholine liposomes, then lipid added), the “coactivator binding by SF-1 after liposome washing” value is reported as “activated”.
